Laboratory results taken from the NIST ThermoML archive (doi:10.1016/j.fluid.2018.12.016).

Conditions: Liquid, Surface laser light scattering (SLLS)

C [methane] + CCCCCCCCCC
Conditions | interfacial tension [mN/m]
310.93 K, 36221 kPa | 1.41e-05
310.94 K, 36221 kPa | 1.93e-05
310.95 K, 36187 kPa | 0.000902
310.96 K, 36198 kPa | 0.000591
310.97 K, 34448 kPa | 0.1569
310.97 K, 35150 kPa | 0.08112
310.97 K, 35795 kPa | 0.0247
310.97 K, 35857 kPa | 0.01978
310.97 K, 35989 kPa | 0.01122
310.97 K, 36092 kPa | 0.00519
310.97 K, 36215 kPa | 0.0001152
310.97 K, 36218 kPa | 4.75e-05
310.98 K, 35498 kPa | 0.04752
310.98 K, 35946 kPa | 0.014
310.98 K, 36206 kPa | 0.000326
310.99 K, 36151 kPa | 0.002584
311 K, 36213 kPa | 0.00015
311.12 K, 35885 kPa | 0.01746
